As usually defined, the IC50 is the concentration needed to halve the response being measured.

Where only a bound is given, the exact number is not on record here.

The values that follow come from BindingDB's records for doi:10.1016/j.bmcl.2004.03.096 (The University of Newcastle, 2004).

The first experiment in a line: Concentration required against dynamin-1 GTPase activity of sheep brain.
`CCCCCCCCCCCCCCN` registered an IC50 of 14.9 µM. On the same count and under the same terms, next, `NCCCCCCCCCCCCN` [1,12-diaminododecane]: 39.6 µM; `CCCCCCCCCCCCCCOC(CN)CN` [2-Tetradecyloxy-propane-1,3-diammonium chloride]: 7.37 µM. Compound `CCCCCCCCCCCCCC[N+](C)(C)CCO` [(2-Hydroxy-ethyl)-dimethyl-tetradecyl-ammonium; bromide] had an IC50 of 9.36 µM. `CCCC/C=C\C/C=C\C/C=C\C/C=C\CCCC(=O)NCCF` [(5Z,8Z,11Z,14Z)-Nonadeca-5,8,11,14-tetraenoic acid (2-fluoro-ethyl)-amide]: the IC50 is greater than 300 µM.

Consider `CCCCCCCCCCCCCC[N+](C)(C)CCCC` [Butyl-dimethyl-tetradecyl-ammonium; bromide], for which the IC50 came to 8.02 µM.

With `CCCCCCCCCCCCCC[N+](C)(C)CCC` [Dimethyl-propyl-tetradecyl-ammonium; bromide], half-maximal inhibition (IC50) was put at 8.85 µM.

As for `CCCCCCCCCCCC[N+](C)(C)CC` [Dodecyl-ethyl-dimethyl-ammonium; bromide], the midpoint of inhibition, the IC50, lay at 10.1 µM. Still for that read-out and setting: next, `CCCCCCCCCCCCCCN` [Tetradecylamine]: 20.2 µM; `CCCCCCCCCCCCCCCC[P+](CCCC)(CCCC)CCCC` [Tributyl-hexadecyl-phosphonium; bromide]: 10.2 µM.

Take `CCCCCCCCCCCCC(=O)OCCN(C)C` [Tridecanoic acid 2-dimethylamino-ethyl ester]: the IC50 came to 23 µM. Same read-out and setting: as for `CCCCCCCCCCCCC(=O)NCCN(C)C` [Tridecanoic acid (2-dimethylamino-ethyl)-amide], the figure is 8.85 µM; as for `CCCCCCCCCCCCCCCC[N+](CC)(CC)CC` [Triethyl-hexadecyl-ammonium; bromide], 9.62 µM; as for `CCCCCCCCCCCCCC[N+](CC)(CC)CC` [Triethyl-tetradecyl-ammonium; bromide], 8.45 µM.

The next experiment can be described thus: Concentration required against dynamin-1 GTPase activity of sheep brain; increased dynamin I GTPase activity at 30 uM.
Consider `CCCC/C=C\C[C@@H](O)/C=C/C=C/C=C\[C@@H](O)CCCC(=O)O` [(6Z,8E,10E,14Z)-(5S,12R)-5,12-Dihydroxy-nonadeca-6,8,10,14-tetraenoic acid], for which the IC50 is greater than 300 µM.

The nature of another experiment: Concentration required against dynamin-1 GTPase activity of sheep brain. This is another data set of the same source.
`CCCCCCCCCCCCCCN` registered an IC50 of 8.74 µM.
